Experimental data taken from ChEMBL document CHEMBL5291721, “A preclinical secondary pharmacology resource illuminates target-adverse drug reaction associations of marketed drugs” (Nat Commun, 2023).

Assays:
[1] = target: cGMP-inhibited 3',5'-cyclic phosphodiesterase 3A (Homo sapiens, UniProt Q14432); assay type: functional
[2] = target: T1, Prostaglandin G/H synthase 1 (Rattus norvegicus, UniProt Q63921); assay type: functional
T1 sequence (Q63921 whole entry): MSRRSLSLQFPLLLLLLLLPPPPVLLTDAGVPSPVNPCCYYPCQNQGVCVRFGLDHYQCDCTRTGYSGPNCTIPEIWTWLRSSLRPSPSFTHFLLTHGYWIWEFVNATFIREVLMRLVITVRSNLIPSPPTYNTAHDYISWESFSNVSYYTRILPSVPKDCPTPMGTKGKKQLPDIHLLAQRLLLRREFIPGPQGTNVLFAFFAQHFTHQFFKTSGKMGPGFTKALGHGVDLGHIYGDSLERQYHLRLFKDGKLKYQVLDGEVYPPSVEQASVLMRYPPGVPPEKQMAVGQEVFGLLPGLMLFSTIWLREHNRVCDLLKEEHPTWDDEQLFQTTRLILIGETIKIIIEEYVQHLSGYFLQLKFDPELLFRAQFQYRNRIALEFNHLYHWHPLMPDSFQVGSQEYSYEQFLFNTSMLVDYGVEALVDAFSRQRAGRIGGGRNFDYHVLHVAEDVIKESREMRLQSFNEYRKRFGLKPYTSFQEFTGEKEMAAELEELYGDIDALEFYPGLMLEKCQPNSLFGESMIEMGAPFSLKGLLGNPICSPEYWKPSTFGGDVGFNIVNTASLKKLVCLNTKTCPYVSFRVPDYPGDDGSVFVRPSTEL

[3] = target: T2, Alpha-2C adrenergic receptor (Homo sapiens, UniProt P18825); assay type: functional
T2 sequence (P18825 whole entry): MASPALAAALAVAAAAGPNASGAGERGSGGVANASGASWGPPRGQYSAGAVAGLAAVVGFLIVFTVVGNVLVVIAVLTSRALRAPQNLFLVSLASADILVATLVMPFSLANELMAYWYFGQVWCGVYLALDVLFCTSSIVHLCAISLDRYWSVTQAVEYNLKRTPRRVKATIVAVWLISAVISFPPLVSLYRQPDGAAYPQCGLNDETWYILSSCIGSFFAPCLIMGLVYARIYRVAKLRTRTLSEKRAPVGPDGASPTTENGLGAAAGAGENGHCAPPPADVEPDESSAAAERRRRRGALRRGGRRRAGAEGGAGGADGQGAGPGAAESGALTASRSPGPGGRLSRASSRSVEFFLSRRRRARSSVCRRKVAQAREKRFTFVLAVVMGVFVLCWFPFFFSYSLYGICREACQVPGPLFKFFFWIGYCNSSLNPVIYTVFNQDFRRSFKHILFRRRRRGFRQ

[4] = target: Gamma-aminobutyric acid receptor subunit alpha-1 (Rattus norvegicus, UniProt P62813)
[5] = target: T3, Muscarinic acetylcholine receptor M2 (Homo sapiens, UniProt P08172); assay type: functional, cell-based
T3 sequence (P08172 whole entry): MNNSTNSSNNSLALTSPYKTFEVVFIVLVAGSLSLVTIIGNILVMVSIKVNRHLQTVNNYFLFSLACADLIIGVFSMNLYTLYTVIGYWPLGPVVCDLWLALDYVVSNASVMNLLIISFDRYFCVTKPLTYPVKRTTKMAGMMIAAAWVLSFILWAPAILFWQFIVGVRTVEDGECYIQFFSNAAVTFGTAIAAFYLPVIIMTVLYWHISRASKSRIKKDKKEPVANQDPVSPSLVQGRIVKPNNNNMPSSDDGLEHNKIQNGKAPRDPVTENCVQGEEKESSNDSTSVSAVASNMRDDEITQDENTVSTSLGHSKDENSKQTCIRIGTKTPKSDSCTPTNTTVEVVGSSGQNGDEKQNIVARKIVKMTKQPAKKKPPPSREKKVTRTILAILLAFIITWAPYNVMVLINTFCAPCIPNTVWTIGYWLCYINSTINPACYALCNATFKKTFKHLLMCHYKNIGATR

[6] = target: T4, Alpha-2B adrenergic receptor (Homo sapiens, UniProt P18089)
T4 sequence (P18089 whole entry): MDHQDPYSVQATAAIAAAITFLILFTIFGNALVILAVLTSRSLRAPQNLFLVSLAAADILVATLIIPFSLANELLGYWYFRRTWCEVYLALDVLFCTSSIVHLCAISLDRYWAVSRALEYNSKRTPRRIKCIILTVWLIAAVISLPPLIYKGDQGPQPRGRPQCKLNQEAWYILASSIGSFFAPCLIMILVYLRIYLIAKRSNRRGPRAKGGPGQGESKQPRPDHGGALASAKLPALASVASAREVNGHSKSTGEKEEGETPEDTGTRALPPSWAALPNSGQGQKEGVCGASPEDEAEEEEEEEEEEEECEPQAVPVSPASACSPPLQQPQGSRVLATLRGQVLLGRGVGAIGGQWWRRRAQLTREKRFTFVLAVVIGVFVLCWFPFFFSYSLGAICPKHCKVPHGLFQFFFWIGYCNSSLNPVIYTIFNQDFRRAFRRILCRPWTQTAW
Note: assay procedure not described here.

Chain of cGMP-inhibited 3',5'-cyclic phosphodiesterase 3A (Q14432 whole entry): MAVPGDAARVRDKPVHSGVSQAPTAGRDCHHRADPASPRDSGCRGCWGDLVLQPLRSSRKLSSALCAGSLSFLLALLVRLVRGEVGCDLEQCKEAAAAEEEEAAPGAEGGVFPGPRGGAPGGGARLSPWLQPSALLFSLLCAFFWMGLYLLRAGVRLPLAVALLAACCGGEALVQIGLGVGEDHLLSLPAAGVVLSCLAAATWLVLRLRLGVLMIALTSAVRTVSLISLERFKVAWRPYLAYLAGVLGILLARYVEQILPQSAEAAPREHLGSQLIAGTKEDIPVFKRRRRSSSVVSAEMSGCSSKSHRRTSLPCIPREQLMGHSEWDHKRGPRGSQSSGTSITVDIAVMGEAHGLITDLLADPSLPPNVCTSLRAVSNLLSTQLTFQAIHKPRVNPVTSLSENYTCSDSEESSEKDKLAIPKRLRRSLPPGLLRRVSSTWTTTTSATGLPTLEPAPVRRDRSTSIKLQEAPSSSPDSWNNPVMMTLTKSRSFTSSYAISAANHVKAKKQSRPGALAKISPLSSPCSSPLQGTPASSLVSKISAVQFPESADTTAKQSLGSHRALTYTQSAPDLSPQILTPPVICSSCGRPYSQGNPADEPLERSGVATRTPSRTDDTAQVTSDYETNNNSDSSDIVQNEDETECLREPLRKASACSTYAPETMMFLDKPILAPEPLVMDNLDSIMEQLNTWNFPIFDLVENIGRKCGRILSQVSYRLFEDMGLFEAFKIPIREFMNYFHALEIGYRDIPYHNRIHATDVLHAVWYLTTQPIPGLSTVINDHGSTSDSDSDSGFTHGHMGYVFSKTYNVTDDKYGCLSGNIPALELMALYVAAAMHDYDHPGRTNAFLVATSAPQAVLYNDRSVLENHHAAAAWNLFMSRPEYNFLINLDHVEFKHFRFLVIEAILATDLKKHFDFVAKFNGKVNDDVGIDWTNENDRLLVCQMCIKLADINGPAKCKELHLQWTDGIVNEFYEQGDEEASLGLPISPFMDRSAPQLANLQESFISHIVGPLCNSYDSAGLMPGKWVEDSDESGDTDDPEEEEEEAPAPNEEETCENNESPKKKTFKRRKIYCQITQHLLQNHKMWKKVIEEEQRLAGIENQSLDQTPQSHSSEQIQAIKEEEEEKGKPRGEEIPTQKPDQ
Chain of Gamma-aminobutyric acid receptor subunit alpha-1 (P62813 whole entry): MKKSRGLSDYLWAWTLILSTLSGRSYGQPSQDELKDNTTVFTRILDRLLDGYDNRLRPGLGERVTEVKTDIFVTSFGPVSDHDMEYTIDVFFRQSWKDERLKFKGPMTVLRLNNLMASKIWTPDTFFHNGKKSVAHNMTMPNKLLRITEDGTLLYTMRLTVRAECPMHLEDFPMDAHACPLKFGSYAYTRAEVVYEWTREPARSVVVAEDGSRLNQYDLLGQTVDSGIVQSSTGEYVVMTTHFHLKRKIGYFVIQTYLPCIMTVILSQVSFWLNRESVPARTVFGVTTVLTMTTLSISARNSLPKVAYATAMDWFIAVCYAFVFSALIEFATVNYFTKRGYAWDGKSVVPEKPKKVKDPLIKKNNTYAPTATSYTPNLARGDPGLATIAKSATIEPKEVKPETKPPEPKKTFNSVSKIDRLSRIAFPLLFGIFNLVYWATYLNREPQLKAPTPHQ

| Structure (SMILES) | AC50 [1] | AC50 [2] | AC50 [3] | AC50 [4] | AC50 [5] | AC50 [6] |
| --- | --- | --- | --- | --- | --- | --- |
| C[N+](C)(C)CCOC(N)=O [CARBAMOYLCHOLINE] | > 30 µM | > 10 µM | > 10 µM | – | – | – |
| CN1C(=O)N(C)C2C1N(C)C(=O)N2C (stereo not drawn) [MEBICAR] | > 30 µM | – | 14 µM | > 30 µM | > 30 µM | > 30 µM |
| CN(C)CCCN1c2ccccc2Sc2ccccc21 [PROMAZINE] | 15 µM | > 30 µM | 0.82 µM | – | > 10 µM | – |
| N[C@@H](CSCC(=O)O)C(=O)O [CARBOCYSTEINE] | > 30 µM | > 30 µM | > 30 µM | – | > 30 µM | > 30 µM |
| Nc1ccc(/N=N/c2ccccc2)c(N)n1 [PHENAZOPYRIDINE] | 22 µM | – | 3.7 µM | > 30 µM | > 30 µM | 3.2 µM |
| Cn1cc[nH]c1=S [METHIMAZOLE] | – | – | – | > 30 µM | – | – |
| CN(CCCN1c2ccccc2CCc2ccccc21)CC(=O)c1ccc(Cl)cc1 [LOFEPRAMINE] | > 30 µM | 1.3 µM | 17 µM | – | > 30 µM | 4 µM |
| NS(=O)(=O)c1cc(Cl)c(Cl)c(S(N)(=O)=O)c1 [DICHLORPHENAMIDE] | > 30 µM | > 10 µM | > 10 µM | – | > 10 µM | > 10 µM |
| CCCC[N+]1(C)[C@@H]2C[C@@H](OC(=O)[C@H](CO)c3ccccc3)C[C@H]1[C@@H]1O[C@@H]12 (stereo partly drawn) [BUTYLSCOPOLAMINE] | – | – | – | > 30 µM | – | – |
| CC(=O)N[C@H]1[C@H]([C@H](O)[C@H](O)CO)OC(C(=O)O)=C[C@@H]1N=C(N)N [ZANAMIVIR] | > 30 µM | > 30 µM | > 30 µM | – | > 10 µM | > 30 µM |
| C[N+](C)(C)CC(=O)O [BETAINE] | > 30 µM | > 30 µM | > 30 µM | – | > 30 µM | > 30 µM |
| CC(=O)N(CC(O)CO)c1c(I)c(C(=O)NCC(O)CO)c(I)c(C(=O)NCC(O)CO)c1I (stereo not drawn) [IOHEXOL] | > 30 µM | > 30 µM | > 10 µM | – | > 10 µM | > 10 µM |
| CN(C/C=C/c1ccccc1)Cc1cccc2ccccc12 [NAFTIFINE] | > 30 µM | 23.1 µM | 4.8 µM | – | > 10 µM | > 10 µM |
| NS(=O)(=O)c1cc(-c2nnn[nH]2)c(NCc2cccs2)cc1Cl [AZOSEMIDE] | 19 µM | 19 µM | > 30 µM | – | > 30 µM | > 30 µM |
| C=C1C[C@@H]2[C@H](CC[C@]3(C)C(=O)CC[C@@H]23)[C@@]2(C)C=CC(=O)C=C12 [EXEMESTANE] | > 30 µM | > 30 µM | > 10 µM | – | > 10 µM | > 10 µM |
| CCCC(=O)N1CCCN(c2nc(N)c3cc(OC)c(OC)cc3n2)CC1 [BUNAZOSIN] | > 30 µM | > 30 µM | 0.55 µM | – | > 30 µM | 1.7 µM |
| NS(=O)(=O)c1cc2c(cc1Cl)NC(CC1CCCC1)NS2(=O)=O (stereo not drawn) [CYCLOPENTHIAZIDE] | > 30 µM | – | > 30 µM | > 30 µM | – | 17 µM |

| Structure (SMILES) | AC50 [1] | AC50 [2] | AC50 [3] | AC50 [4] | AC50 [5] | AC50 [6] |
| --- | --- | --- | --- | --- | --- | --- |
| CO/N=C(\C(=O)N[C@@H]1C(=O)N2C(C(=O)OCOC(=O)C(C)(C)C)=C(C)CS[C@H]12)c1csc(N)n1 | > 30 µM | – | > 30 µM | > 30 µM | – | > 30 µM |
| CC(C)NCC1CCc2cc(CO)c([N+](=O)[O-])cc2N1 (stereo not drawn) [OXAMNIQUINE] | > 30 µM | > 10 µM | > 10 µM | – | > 10 µM | > 10 µM |
| CC(C)=CCC1C(=O)N(c2ccccc2)N(c2ccccc2)C1=O [FEPRAZONE] | – | – | – | > 30 µM | – | – |
| CC(=O)O[C@]1(C(C)=O)CC[C@H]2[C@@H]3C[C@H](C)C4=CC(=O)CC[C@]4(C)[C@H]3CC[C@@]21C [MEDROXYPROGESTERONE ACETATE] | – | > 30 µM | – | 13.4 µM | – | – |
| CC(C)(N)Cc1ccc(Cl)cc1 [CHLORPHENTERMINE] | > 30 µM | > 30 µM | > 10 µM | – | > 10 µM | > 10 µM |
| N/N=c1/cc2c(n[nH]1)CCN(C(=O)c1ccccc1)C2 [ENDRALAZINE] | > 30 µM | – | > 30 µM | > 30 µM | – | > 30 µM |
| O=C(c1ccc(F)c(F)c1Nc1ccc(I)cc1F)N1CC(O)([C@@H]2CCCCN2)C1 [COBIMETINIB] | – | – | – | > 30 µM | – | – |
| CO[C@@]12[C@H](COC(N)=O)C3=C(C(=O)C(C)=C(N)C3=O)N1C[C@@H]1N[C@@H]12 [MITOMYCIN] | – | – | – | > 30 µM | – | – |
| Cc1c(O)cccc1C(=O)N[C@@H](CSc1ccccc1)[C@H](O)CN1C[C@H]2CCCC[C@H]2C[C@H]1C(=O)NC(C)(C)C | – | – | – | > 30 µM | – | – |
| O=P(O)(O)C(O)(Cc1cccnc1)P(=O)(O)O [RISEDRONIC ACID] | 7.14 µM | > 30 µM | > 30 µM | – | > 30 µM | – |
| CC(C(O)c1ccc(O)cc1)N1CCC(Cc2ccccc2)CC1 (stereo not drawn) [IFENPRODIL] | > 30 µM | > 30 µM | 0.89 µM | – | > 30 µM | 0.44 µM |
| COCC1=C(C(=O)OC(C)OC(=O)OC(C)C)N2C(=O)[C@@H](NC(=O)/C(=N\OC)c3csc(N)n3)[C@H]2SC1 (stereo partly drawn) [CEFPODOXIME PROXETIL] | > 30 µM | – | > 30 µM | > 30 µM | > 30 µM | > 30 µM |
| CC1=NN(c2ccccc2)C(=O)C1 [EDARAVONE] | – | – | – | > 30 µM | – | – |
| O=C1CCC(N2C(=O)c3ccccc3C2=O)C(=O)N1 (stereo not drawn) [THALIDOMIDE] | > 30 µM | > 30 µM | > 10 µM | > 30 µM | > 10 µM | – |
| O=C(Cn1ccnc1[N+](=O)[O-])NCc1ccccc1 [BENZNIDAZOLE] | > 30 µM | > 30 µM | > 30 µM | > 30 µM | > 30 µM | > 30 µM |
| CN(C)[C@@H]1C(O)=C(C(N)=O)C(=O)[C@@]2(O)C(O)=C3C(=O)c4c(O)ccc(Cl)c4[C@@H](O)[C@H]3C[C@@H]12 [DEMECLOCYCLINE] | > 30 µM | > 10 µM | > 10 µM | – | > 10 µM | > 10 µM |
